Assay results taken from US10253030B2, “Crystal form, preparation method and intermediate of dihydropyrido ring compound” (QILU PHARMACEUTICAL CO., LTD., priority 2015, dated 2019).

Experiments:
HBV = assay: qPCR assay for HBV in vitro test (HBV DNA content in HepG2.2.15 cells); assay type: cell-based
Protocol: qPCR Assay for HBV In Vitro Test
The HBV DNA content in HepG2.2.15 cells was detected by real-time qPCR assay, and the EC50 values of the compounds were used as indicators to evaluate the inhibitory effect of the compounds on HBV.
2.1 Cell Line: HepG2.2.15 Cells
3.1 HepG2.2.15 cells (4×10^4 cells/well) were seeded in a 96-well plate and incubated at 37° C. under 5% CO 2 overnight.
3.2 On the second day, the compound was diluted into a total of 8 concentrations with 3-fold gradient dilution. Different concentrations of the compound were added to the culture wells, in duplicate. The final concentration of DMSO in the culture medium was 1%. 1 μM GLS4 was used as 100% inhibition control; 1% DMSO was used as 0% inhibition control.
3.3 On the fifth day, the fresh culture medium containing the compound was replaced.
3.4 On the eighth day, the culture medium in the culture wells was collected and DNA was extracted using a high-throughput DNA purification kit (Qiagen-51162). Refer to the product manual for the specific procedure.
3.1 15 μl of reaction mixture was added to each well of a 96-well PCR plate, then 10 μl of sample DNA or standard of HBV DNA to each well.
3.2 PCR reaction conditions: heating at 95° C. for 10 minutes; then denaturing at 95° C. for 15 seconds, extension at 60° C. for 1 minute, a total of 40 cycles. […]

Hepatitis B virus = settings: prior art, Science, 299 (2003), 893-896; cited from earlier work

Row | Structure (SMILES) | EC50 (HBV; Hepatitis B virus, 192 h, HBV DNA in culture medium by real-time qPCR, day 8, read-out: Concentration for 50% of inhibition (EC50) value on HBV) [nM] | inhibitory effect on HBV DNA (HBV; qPCR, conclusion in words) | IC50 (Hepatitis B virus) [nM]
1 | COC(=O)C1=C2C[C@H](NS(N)(=O)=O)CN2C(c2nccs2)=N[C@H]1c1ccc(F)c(F)c1F [Compound 1] | ≤ 100 | significant inhibitory effect on HBV DNA | –
2 | Nc1ccn([C@@H]2CS[C@H](CO)O2)c(=O)n1 [Iamivudine] | – | – | 300
